Laboratory results as given in patent US20100267561A1, “HERBICIDAL PYRIDAZINONE DERIVATIVES” (priority 2007, published 2010).

Experiments:
Assay type in all cases: in vivo
[1] = system: large crabgrass (Digitaria sanguinalis); test: Test B pre-/postemergence plant response
How it was run: (§1)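 Visual scoring from 0 (no effect) to 100 (complete control) against untreated controls was done 13 to 15 days after greenhouse treatment. Chemicals were formulated in a surfactant-containing non-phytotoxic solvent and applied to soil preemergence or to 1- to 4-leaf (2-18 cm) plants postemergence.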

[2] = system: surinam grass (Brachiaria decumbens); test: Test B pre-/postemergence plant response
How it was run: as §1

corn (Zea mays) = test: Test B pre-/postemergence plant response
How it was run: as §1

[3] = system: cocklebur (Xanthium strumarium); test: Test B pre-/postemergence plant response; conditions: for Cocklebur plant response rating: 8 g ai/ha
How it was run: as §1

[4] = system: common (oilseed) sunflower (Helianthus annuus); test: Test B pre-/postemergence plant response; conditions: Preemergence
How it was run: as §1

[5] = system: lambsquarters (Chenopodium album); test: Test B pre-/postemergence plant response
How it was run: as §1

[6] = system: Russian thistle (Salsola iberica); test: Test B pre-/postemergence plant response; conditions: Preemergence
How it was run: as §1

soybean (Glycine max) = test: Test B pre-/postemergence plant response
How it was run: as §1

kochia (Kochia scoparia) = test: Test B pre-/postemergence plant response
How it was run: as §1

[7] = system: goosegrass (Eleusine indica); test: Test B pre-/postemergence plant response
How it was run: as §1

[8] = system: bermudagrass (Cynodon dactylon); test: Test B pre-/postemergence plant response; conditions: for Bermudagrass plant response rating: 8 g ai/ha
How it was run: as §1

[9] = system: common ragweed (Ambrosia elation); test: Test B pre-/postemergence plant response
How it was run: as §1

[10] = system: wheat (Triticum aestivum); test: Test B pre-/postemergence plant response
How it was run: as §1

[11] = system: ducksalad (Heteranthera limosa); test: Test B flooded paddy test plant response; conditions: Flood (flooded paddy test), scale 0 to 100, 0 no effect, 100 complete control
How it was run: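 2-leaf plants; pots flooded 3 cm above soil; compound added to paddy water; depth maintained. Greenhouse 13–15 d. Visual rating vs controls, 0 (no effect) to 100 (complete control); dash = no result.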

[12] = 8 g ai/ha, postemergence, 0-100 scale
[13] = Postemergence, 16 g ai/ha, scale 0 to 100
[14] = Postemergence, 31 g ai/ha, scale 0 to 100
[15] = Postemergence, 62 g ai/ha, scale 0 to 100, 0 no effect, 100 complete control
[16] = Preemergence, 31 g ai/ha, 0 to 100 scale, 0 no effect, 100 complete control
[17] = Preemergence, 62 g ai/ha, scale 0 to 100
[18] = Preemergence, 8 g ai/ha, scale 0 to 100
[19] = Preemergence, 16 g ai/ha, scale 0 to 100
[20] = Preemergence, 31 g ai/ha, scale 0 to 100 (0 no effect, 100 complete control)
[21] = Preemergence, 62 g ai/ha, 0 to 100 scale, 0 no effect, 100 complete control
[22] = Preemergence, 16 g ai/ha, scale 0 to 100 (0 no effect, 100 complete control)
[23] = 31 g ai/ha, scale 0 to 100 (0 no effect, 100 complete control)

Cc1cc(-c2ccc(Cl)cc2)nn1-c1c(OC(=O)c2cccs2)cnn(C)c1=O [Compound 52]
Crabgrass, Large plant response rating [1, 12]: 65
Plant response rating, Crabgrass, Large [1, 13]: 85
Plant response rating, Crabgrass, Large [1, 14]: 100
Plant response rating, Crabgrass, Large [1, 15]: 100
Plant response rating, Crabgrass, Large [1, 16]: 0
Plant response rating, Crabgrass, Large [1, 17]: 0
Crabgrass, Large plant response rating [1, 18]: 0
Crabgrass, Large plant response rating [1, 19]: 0
Surinam Grass plant response rating [2, 12]: 70
Plant response rating, Surinam Grass [2, 13]: 85
Plant response rating, Surinam Grass [2, 14]: 100
Plant response rating, Surinam Grass [2, 15]: 100
Plant response rating, Surinam Grass [2, 20]: 25
Plant response rating, Surinam Grass [2, 21]: 100
Surinam Grass plant response rating [2, 18]: 0
Surinam Grass plant response rating [2, 19]: 0
Corn plant response rating (corn (Zea mays); [12]): 85
Plant response rating, Corn (corn (Zea mays); [13]): 98
Plant response rating, Corn (corn (Zea mays); [14]): 98
Plant response rating, Corn (corn (Zea mays); [15]): 98
Plant response rating, Corn (corn (Zea mays); [16]): 70
Plant response rating, Corn (corn (Zea mays); [17]): 75
Corn plant response rating (corn (Zea mays); [18]): 0
Corn plant response rating (corn (Zea mays); [19]): 55
Cocklebur plant response rating ([3]; postemergence, 0-100 scale): 0
Plant response rating, Cocklebur [3, 13]: 0
Plant response rating, Cocklebur [3, 14]: 0
Plant response rating, Cocklebur [3, 15]: 0
Plant response rating, Cocklebur [3, 22]: 0
Plant response rating, Cocklebur [3, 16]: 0
Plant response rating, Cocklebur [3, 17]: 0
Cocklebur plant response rating ([3]; Preemergence, scale 0 to 100): 0
Plant response rating, Sunflower [4, 23]: 0
Plant response rating, Sunflower ([4]; 62 g ai/ha, scale 0 to 100): 0
Sunflower plant response rating ([4]; 8 g ai/ha, scale 0 to 100): 0
Sunflower plant response rating ([4]; 16 g ai/ha, scale 0 to 100): 0
Lambsquarters plant response rating [5, 12]: 0
Plant response rating, Lambsquarters [5, 13]: 0
Plant response rating, Lambsquarters [5, 14]: 0
Plant response rating, Lambsquarters [5, 15]: 0
Plant response rating, Lambsquarters [5, 16]: 0
Plant response rating, Lambsquarters [5, 17]: 0
Lambsquarters plant response rating [5, 18]: 0
Lambsquarters plant response rating [5, 19]: 0
Plant response rating, Russian Thistle [6, 23]: 0
Plant response rating, Russian Thistle ([6]; 62 g ai/ha, scale 0 to 100): 0
Russian Thistle plant response rating ([6]; 8 g ai/ha, scale 0 to 100): 0
Russian Thistle plant response rating ([6]; 16 g ai/ha, scale 0 to 100): 0
Soybean plant response rating (soybean (Glycine max); [12]): 0
Plant response rating, Soybean (soybean (Glycine max); [13]): 0
Plant response rating, Soybean (soybean (Glycine max); [14]): 0
Plant response rating, Soybean (soybean (Glycine max); [15]): 0
Plant response rating, Soybean (soybean (Glycine max); [17]): 0
Soybean plant response rating (soybean (Glycine max); [18]): 0
Soybean plant response rating (soybean (Glycine max); [19]): 0
Kochia plant response rating (kochia (Kochia scoparia); [12]): 0
Plant response rating, Kochia (kochia (Kochia scoparia); [13]): 0
Plant response rating, Kochia (kochia (Kochia scoparia); [14]): 0
Plant response rating, Kochia (kochia (Kochia scoparia); [15]): 0
Plant response rating, Kochia (kochia (Kochia scoparia); [17]): 85
Kochia plant response rating (kochia (Kochia scoparia); [18]): 0
Kochia plant response rating (kochia (Kochia scoparia); [19]): 0
Goosegrass plant response rating [7, 12]: 60
Plant response rating, Goosegrass [7, 13]: 65
Plant response rating, Goosegrass [7, 14]: 80
Plant response rating, Goosegrass [7, 15]: 85
Plant response rating, Goosegrass [7, 16]: 0
Plant response rating, Goosegrass [7, 17]: 0
Goosegrass plant response rating [7, 18]: 0
Goosegrass plant response rating [7, 19]: 0
Bermudagrass plant response rating ([8]; postemergence, 0-100 scale): 40
Plant response rating, Bermudagrass [8, 13]: 98
Plant response rating, Bermudagrass [8, 14]: 100
Plant response rating, Bermudagrass [8, 15]: 100
Bermudagrass plant response rating ([8]; Preemergence, scale 0 to 100 (0 no effect, 100 complete control)): 0
Plant response rating, Bermudagrass [8, 22]: 0
Plant response rating, Bermudagrass [8, 16]: 0
Plant response rating, Bermudagrass [8, 17]: 85
Ragweed plant response rating [9, 12]: 0
Plant response rating, Ragweed [9, 13]: 0
Plant response rating, Ragweed [9, 14]: 0
Plant response rating, Ragweed [9, 15]: 0
Plant response rating, Ragweed [9, 20]: 0
Plant response rating, Ragweed [9, 17]: 0
Ragweed plant response rating [9, 18]: 0
Ragweed plant response rating [9, 19]: 0
Wheat plant response rating [10, 12]: 0
Plant response rating, Wheat [10, 13]: 50
Plant response rating, Wheat [10, 14]: 70
Plant response rating, Wheat [10, 15]: 85
Plant response rating, Wheat [10, 20]: 20
Plant response rating, Wheat [10, 21]: 50
Wheat plant response rating [10, 18]: 0
Wheat plant response rating [10, 19]: 0
Plant response rating, Ducksalad ([11]; 62 g ai/ha): 0
Plant response rating, Ducksalad ([11]; 250 g ai/ha): 0
